Active and inactive are the calls of the source. No rule for the calls is given here.
Tests used:
Test in all cases: ABPP selectivity across brain serine hydrolases – biochemical, gel-based competitive ABPP, mouse brain membrane, set 1, selectivity assay for DAGLb inhibitor project, late-stage follow-up (AID 602311)
[1] = target: Monoacylglycerol lipase ABHD6 (Mus musculus) (UniProt Q8R2Y0); conditions: gel-based competitive ABPP fluorescence, at 10 µM, hits give high values
LYPLA2 = conditions: gel-based competitive ABPP fluorescence, at 10 µM, hits give high values
ABHD12 = conditions: gel-based competitive ABPP fluorescence, at 10 µM, hits give high values
APEH = conditions: gel-based competitive ABPP fluorescence, at 10 µM, hits give high values
[2] = target: Acyl-protein thioesterase 1 (Mus musculus) (UniProt P97823); conditions: gel-based competitive ABPP fluorescence, LYPLA1, at 10 µM, hits give high values
MAGL = conditions: gel-based competitive ABPP fluorescence, at 10 µM, hits give high values
KIAA1363 = conditions: gel-based competitive ABPP fluorescence, at 10 µM, hits give high values
FAAH = conditions: gel-based competitive ABPP fluorescence, at 10 µM, hits give high values

Sequence of Monoacylglycerol lipase ABHD6 (Mus musculus) (Q8R2Y0 whole entry, looked up): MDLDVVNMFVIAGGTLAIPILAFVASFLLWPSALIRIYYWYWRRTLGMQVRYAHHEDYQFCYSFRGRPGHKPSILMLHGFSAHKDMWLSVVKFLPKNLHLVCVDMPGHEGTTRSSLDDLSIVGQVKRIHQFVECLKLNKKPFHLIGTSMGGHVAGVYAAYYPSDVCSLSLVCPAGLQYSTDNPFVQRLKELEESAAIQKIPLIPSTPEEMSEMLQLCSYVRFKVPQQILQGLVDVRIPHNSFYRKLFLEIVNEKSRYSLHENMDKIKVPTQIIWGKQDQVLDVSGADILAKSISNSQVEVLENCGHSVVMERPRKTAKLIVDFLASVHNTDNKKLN
Sequence of Acyl-protein thioesterase 1 (Mus musculus) (P97823 whole entry, looked up): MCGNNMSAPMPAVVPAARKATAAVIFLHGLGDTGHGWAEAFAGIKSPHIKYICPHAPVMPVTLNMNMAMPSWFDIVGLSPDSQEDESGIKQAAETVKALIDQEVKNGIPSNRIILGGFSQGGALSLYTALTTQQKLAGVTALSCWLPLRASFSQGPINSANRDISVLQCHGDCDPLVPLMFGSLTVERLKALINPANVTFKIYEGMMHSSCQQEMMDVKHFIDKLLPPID

SMILES | inhibition [1] [%] | inhibition (LYPLA2) | inhibition (ABHD12) | inhibition (APEH) | inhibition [2] | inhibition (MAGL) | inhibition (KIAA1363) | inhibition (FAAH)
O=C(N1CCCCC1Cc1ccccc1)n1cc(-c2cccc(-c3ccccc3)c2)nn1 (stereo not drawn) | 85 | 0% (inactive) | 0% (inactive) | 0% (inactive) | 0% (inactive) | 80% | 0% (inactive) | 65%
O=C(N1CCCCC1Cc1ccccc1)n1cc(-c2ccc(-c3ccccc3)cc2)nn1 (stereo not drawn) | 95 | 0% (inactive) | 0% (inactive) | 0% (inactive) | 0% (inactive) | 0% (inactive) | 0% (inactive) | 0% (inactive)
O=C(N1CCCCC1Cc1ccccc1)n1cc(-c2ccc(-c3ccc(C(F)(F)F)cc3)cc2)nn1 (stereo not drawn) | 90 | 0% (inactive) | 0% (inactive) | 0% (inactive) | 0% (inactive) | 10% (inactive) | 60% | 55%
O=C(N1CCCCC1Cc1ccccc1)n1cc(-c2ccc(-c3ccccc3OC(F)(F)F)cc2)nn1 (stereo not drawn) | 85 | 0% (inactive) | 0% (inactive) | 0% (inactive) | 0% (inactive) | 60% | 25% (inactive) | 45% (inactive)
O=C(N1CCCCC1Cc1ccccc1)n1cc(-c2ccc(-c3ccccc3C(F)(F)F)cc2)nn1 (stereo not drawn) | 80 | 0% (inactive) | 0% (inactive) | 0% (inactive) | 0% (inactive) | 1% (inactive) | 0% (inactive) | 40% (inactive)
O=C(N1CCCCC1Cc1ccccc1)n1cc(-c2ccccc2-c2ccccc2)nn1 (stereo not drawn) | 80 | 10% (inactive) | 0% (inactive) | 0% (inactive) | 10% (inactive) | 75% | 0% (inactive) | 98%
O=C(N1CCCCC1Cc1ccccc1)n1cc(-c2ccc(-c3cccc(C(F)(F)F)c3)cc2)nn1 (stereo not drawn) | 85 | 0% (inactive) | 0% (inactive) | 0% (inactive) | 0% (inactive) | 1% (inactive) | 10% (inactive) | 65%
O=C(N(CCc1ccccc1)Cc1ccco1)n1cc(-c2ccc(OC(F)(F)F)cc2)nn1 | 95 | 0% (inactive) | 0% (inactive) | 0% (inactive) | 0% (inactive) | 10% (inactive) | 55% | 95%
O=C(N1CCCCC1Cc1ccccc1)n1cc(-c2ccc(-c3cccc(CO)c3)cc2)nn1 (stereo not drawn) | 90 | 0% (inactive) | 0% (inactive) | 0% (inactive) | 0% (inactive) | 10% (inactive) | 0% (inactive) | 40% (inactive)
COc1ccccc1-c1ccc(-c2cn(C(=O)N3CCCCC3Cc3ccccc3)nn2)cc1 (stereo not drawn) | 85 | 0% (inactive) | 0% (inactive) | 0% (inactive) | 0% (inactive) | 70% | 0% (inactive) | 10% (inactive)
Cc1ccccc1-c1ccc(-c2cn(C(=O)N3CCCCC3Cc3ccccc3)nn2)cc1 (stereo not drawn) | 98 | 0% (inactive) | 0% (inactive) | 0% (inactive) | 0% (inactive) | 0% (inactive) | 0% (inactive) | 30% (inactive)
O=C(N1CCCCC1Cc1ccccc1)n1cc(-c2ccc(-c3ccccc3Cl)cc2)nn1 (stereo not drawn) | 95 | 0% (inactive) | 0% (inactive) | 0% (inactive) | 0% (inactive) | 10% (inactive) | 20% (inactive) | 30% (inactive)
O=C(N1CCCCC1Cc1ccccc1)n1cc(-c2ccc(Br)cc2)nn1 (stereo not drawn) | 90 | 0% (inactive) | 0% (inactive) | 0% (inactive) | 0% (inactive) | 90% | 0% (inactive) | 90%
O=C(N1CCCCC1Cc1ccccc1)n1cc(-c2ccc(OC(F)(F)F)cc2)nn1 (stereo not drawn) | 90 | 0% (inactive) | 0% (inactive) | 0% (inactive) | 0% (inactive) | 40% (inactive) | 40% (inactive) | 65%
CC(C)(C)OC(=O)NCCCCCN(CCc1ccccc1)C(=O)n1cc(-c2ccc(OC(F)(F)F)cc2)nn1 | 95 | 0% (inactive) | 0% (inactive) | 0% (inactive) | 0% (inactive) | 10% (inactive) | 0% (inactive) | 0% (inactive)
CC(C)CN(CCc1ccccc1)C(=O)n1cc(-c2ccc(OC(F)(F)F)cc2)nn1 | 90 | 0% (inactive) | 0% (inactive) | 0% (inactive) | 0% (inactive) | 0% (inactive) | 0% (inactive) | 0% (inactive)
O=C(c1ccc(-c2cn(C(=O)N3CCCCC3Cc3ccccc3)nn2)cc1)N1CCCCC1 (stereo not drawn) | 98 | 25% (inactive) | 0% (inactive) | 0% (inactive) | 25% (inactive) | 0% (inactive) | 0% (inactive) | 55%

Now from value to compound:

inhibition [1] [%] | inhibition (LYPLA2) | inhibition (ABHD12) | inhibition (APEH) | inhibition [2] | inhibition (MAGL) | inhibition (KIAA1363) | inhibition (FAAH) | SMILES
85 | 0% (inactive) | 0% (inactive) | 0% (inactive) | 0% (inactive) | 0% (inactive) | 0% (inactive) | 0% (inactive) | O=C(N1CCCCC1Cc1ccccc1)n1ncc(C(O)(c2ccccc2)c2ccccc2)n1 (stereo not drawn)
85 | 0% (inactive) | 0% (inactive) | 0% (inactive) | 0% (inactive) | 0% (inactive) | 10% (inactive) | 10% (inactive) | O=C(c1ccc(-c2ccc(-c3cn(C(=O)N4CCCCC4Cc4ccccc4)nn3)cc2)cc1)N1CCCCC1 (stereo not drawn)
90 | 0% (inactive) | 0% (inactive) | 0% (inactive) | 0% (inactive) | 0% (inactive) | 0% (inactive) | 50% | O=C(N1CCCCC1Cc1ccccc1)n1cc(-c2ccc(-c3ccc4c(c3)OCO4)cc2)nn1 (stereo not drawn)
90 | 0% (inactive) | 0% (inactive) | 0% (inactive) | 0% (inactive) | 0% (inactive) | 55% | 45% (inactive) | O=C(N1CCCCC1Cc1ccccc1)n1cc(-c2ccc(-c3ccc(OC(F)(F)F)cc3)cc2)nn1 (stereo not drawn)
95 | 20% (inactive) | 10% (inactive) | 0% (inactive) | 20% (inactive) | 95% | 0% (inactive) | 55% | O=C(N1CCCCC1Cc1ccccc1)n1cc(-c2ccc(-c3ccccc3CO)cc2)nn1 (stereo not drawn)
100 | 100% | 0% (inactive) | 95% | 100% | 0% (inactive) | 100% | 55% | O=C(N1CCCCC1c1ccccc1)n1cc(C(O)(c2ccccc2)c2ccccc2)nn1 (stereo not drawn)
90 | 50% | 0% (inactive) | 0% (inactive) | 50% | 95% | 85% | 98% | O=C(N1CCCCC1Cc1ccccc1)n1cc(-c2cc(F)cc(F)c2)nn1 (stereo not drawn)
85 | 0% (inactive) | 0% (inactive) | 0% (inactive) | 0% (inactive) | 0% (inactive) | 90% | 98% | O=C(N1CCCCC1Cc1ccccc1)n1ncc(-c2ccc(OC(F)(F)F)cc2)n1 (stereo not drawn)
98 | 0% (inactive) | 0% (inactive) | 0% (inactive) | 0% (inactive) | 10% (inactive) | 0% (inactive) | 40% (inactive) | O=C(N1CCCCC1Cc1ccccc1)n1cc(-c2ccc(-c3ccoc3)cc2)nn1 (stereo not drawn)
